Read-outs that look alike come from different tables or passages of the source.

What is called IC50 is the concentration that inhibits the measured activity by half.

The test deals with Nav 1.7 (Homo sapiens (Human), UniProt Q15858). Put plainly: Nav 1.7 IWQ in vitro assay (IonWorks Quattro population patch-clamp). The format is cell-based. As to conditions: for IC50: 293 cells stably transfected with Nav 1.7. The method in brief:
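HEK293 cells stably expressing Nav 1.7, recorded by automated population patch-clamp with a train of depolarizations producing increasing inactivation. Single compound concentration added during 3–8 min unclamped period, then same protocol repeated. Leak-corrected current at 26th pulse to −20 mV gave percent block (duplicate); IC50 fitted from concentration–block curves.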

Setting [1] is: first part of table, read-out: Nav 1.7 IWQ IC50.
[2] abbreviates: second part of table, read-out: Nav1.7 IWQ IC50 IP.

Chain of Nav 1.7 (Q15858 whole entry): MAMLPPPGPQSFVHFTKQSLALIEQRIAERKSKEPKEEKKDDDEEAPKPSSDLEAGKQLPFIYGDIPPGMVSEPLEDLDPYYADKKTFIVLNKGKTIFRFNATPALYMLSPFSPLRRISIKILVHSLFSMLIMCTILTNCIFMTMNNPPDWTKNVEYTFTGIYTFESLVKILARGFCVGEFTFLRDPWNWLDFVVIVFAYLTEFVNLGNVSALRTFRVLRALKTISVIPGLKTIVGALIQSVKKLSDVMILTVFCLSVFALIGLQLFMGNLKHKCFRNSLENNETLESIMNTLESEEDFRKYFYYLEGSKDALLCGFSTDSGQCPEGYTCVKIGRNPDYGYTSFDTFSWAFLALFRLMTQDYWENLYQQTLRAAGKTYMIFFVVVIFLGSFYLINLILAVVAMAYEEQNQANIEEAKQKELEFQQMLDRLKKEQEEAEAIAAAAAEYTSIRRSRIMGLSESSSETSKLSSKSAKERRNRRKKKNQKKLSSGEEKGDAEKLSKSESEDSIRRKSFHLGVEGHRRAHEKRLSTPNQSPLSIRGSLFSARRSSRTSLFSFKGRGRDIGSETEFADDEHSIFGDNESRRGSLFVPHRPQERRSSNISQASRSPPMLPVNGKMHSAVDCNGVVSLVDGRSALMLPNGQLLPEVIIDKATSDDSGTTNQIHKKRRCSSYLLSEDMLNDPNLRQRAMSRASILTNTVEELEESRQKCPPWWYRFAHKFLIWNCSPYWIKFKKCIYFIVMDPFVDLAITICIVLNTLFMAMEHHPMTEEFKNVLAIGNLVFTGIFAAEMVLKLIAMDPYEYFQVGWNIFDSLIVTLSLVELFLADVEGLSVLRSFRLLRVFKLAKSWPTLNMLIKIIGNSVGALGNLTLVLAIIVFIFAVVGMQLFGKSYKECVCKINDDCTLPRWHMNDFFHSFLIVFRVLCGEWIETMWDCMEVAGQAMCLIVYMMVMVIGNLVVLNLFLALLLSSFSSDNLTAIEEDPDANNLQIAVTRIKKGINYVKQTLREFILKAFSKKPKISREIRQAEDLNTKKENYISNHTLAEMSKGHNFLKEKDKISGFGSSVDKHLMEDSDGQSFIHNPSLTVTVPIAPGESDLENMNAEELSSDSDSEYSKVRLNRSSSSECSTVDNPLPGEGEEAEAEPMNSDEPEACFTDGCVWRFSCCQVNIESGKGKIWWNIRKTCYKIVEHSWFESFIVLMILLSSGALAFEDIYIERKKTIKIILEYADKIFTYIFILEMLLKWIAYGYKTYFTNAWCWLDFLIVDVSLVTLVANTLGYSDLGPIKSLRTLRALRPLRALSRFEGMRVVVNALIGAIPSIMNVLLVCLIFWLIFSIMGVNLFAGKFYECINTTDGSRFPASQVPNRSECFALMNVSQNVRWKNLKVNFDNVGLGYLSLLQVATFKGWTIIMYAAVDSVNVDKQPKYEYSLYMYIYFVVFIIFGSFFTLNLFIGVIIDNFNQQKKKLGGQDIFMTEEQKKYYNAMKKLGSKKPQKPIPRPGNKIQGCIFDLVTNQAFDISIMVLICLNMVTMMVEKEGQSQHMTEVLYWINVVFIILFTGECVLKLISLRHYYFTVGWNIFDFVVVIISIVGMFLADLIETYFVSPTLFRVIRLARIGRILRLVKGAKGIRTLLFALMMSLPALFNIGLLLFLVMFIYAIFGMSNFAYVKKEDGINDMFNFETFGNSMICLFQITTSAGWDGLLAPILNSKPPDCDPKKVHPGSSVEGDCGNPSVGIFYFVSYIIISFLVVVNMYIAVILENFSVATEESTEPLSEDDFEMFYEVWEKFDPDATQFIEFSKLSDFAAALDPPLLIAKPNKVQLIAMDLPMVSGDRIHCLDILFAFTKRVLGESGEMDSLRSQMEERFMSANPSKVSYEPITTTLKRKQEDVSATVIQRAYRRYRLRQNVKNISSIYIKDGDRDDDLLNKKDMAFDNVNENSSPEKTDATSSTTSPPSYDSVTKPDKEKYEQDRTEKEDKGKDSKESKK

`Cc1cnc(OCCN(C)C)c(-c2nccc3cc(S(=O)(=O)Nc4ccncn4)ccc23)c1` [Example 382, 1-(2-(2-(DIMETHYLAMINO)ETHOXY)-5-METHYLPYRIDIN-3-YL)-N-(PYRIMIDIN-4-YL)ISOQUINOLINE-6-SULFONAMIDE]: the “Nav1.7 Single Point Data IWQ (at […]) (%)” value came to 27.8%. For the compound `O=S(=O)(Nc1ncns1)c1ccc2c(-c3ccncc3)cccc2c1` [Example 7], the IC50 under setting [1] was 7.76 µM. On to `COc1cc(-c2ncc(Cl)s2)ccc1-c1nccc2cc(S(=O)(=O)Nc3ccncn3)ccc12` [Example 458, 1-(4-(5-CHLOROTHIAZOL-2-YL)-2-METHOXYPHENYL)-N-(PYRIMIDIN-4-YL)ISOQUINOLINE-6-SULFONAMIDE], for which the “Nav1.7 Single Point Data IWQ (at […]) (%)” value worked out at 24.7%. For the compound `CC(C)(O)C1CN(c2cccc3cc(S(=O)(=O)Nc4ncns4)ccc23)CCO1` (centres unmarked) [Example 20], the IC50 under setting [1] amounted to 3.14 µM. With `Cc1ccc2c(cnn2C)c1-c1nccc2cc(S(=O)(=O)Nc3ccncn3)ccc12` [Example 309], the “Nav1.7 Single Point Data IWQ (at […]) (%)” value worked out at 27%. The IC50 under setting [2] is more than 10 µM. The like results for `O=S(=O)(Nc1ccncn1)c1ccc2c(OCc3cc4n(n3)CCCO4)nccc2c1` [Example 297, 1-((6,7-DIHYDRO-5H-PYRAZOLO[5,1-B][1,3]OXAZIN-2-YL)METHOXY)-N-(PYRIMIDIN-4-YL)ISOQUINOLINE-6-SULFONAMIDE] were, in that order, 38% and more than 10 µM. The like results for `Cn1ccnc1-c1nccc2cc(S(=O)(=O)Nc3nccs3)ccc12` [Example 315, 1-(1-METHYL-1H-IMIDAZOL-2-YL)-N-(THIAZOL-2-YL)ISOQUINOLINE-6-SULFONAMIDE 2,2,2-TRIFLUOROACETATE] were, in that order, 37% and more than 10 µM. For the compound `CC1(c2ccccc2)CN(c2cccc3cc(S(=O)(=O)Nc4ncns4)ccc23)CCO1` (centres unmarked) [Example 15], the IC50 under setting [1] was 1.29 µM.

In the case of `COc1cc(C(F)(F)F)ccc1-c1nccc2cc(S(=O)(=O)Nc3cnncn3)ccc12` [Example 391, 1-(2-METHOXY-4-(TRIFLUOROMETHYL)PHENYL)-N-(1,2,4-TRIAZIN-5-YL)ISOQUINOLINE-6-SULFONAMIDE], the “Nav1.7 Single Point Data IWQ (at […]) (%)” value stood at 34.8%. In the case of `CCC1CN(c2cccc3cc(S(=O)(=O)Nc4ncns4)ccc23)CCO1` (centres unmarked) [Example 18], the IC50 under setting [1] was determined as 0.71 µM.

In the case of `Cn1nccc1-c1cc(C(F)(F)F)ccc1-c1cccc2cc(S(=O)(=O)Nc3ccncn3)ccc12` [Example 74], the IC50 under setting [1] was 0.08 µM. For `Cc1c(-c2nccc3cc(S(=O)(=O)Nc4ccncn4)ccc23)ccc2c1cnn2C` [Example 307], the “Nav1.7 Single Point Data IWQ (at […]) (%)” value is reported as 40%. Further, the IC50 under setting [2] was more than 10 µM. `CN1CC=C(c2cc(C(F)(F)F)ccc2-c2cccc3cc(S(=O)(=O)Nc4ccncn4)ccc23)CC1` [Example 76]: the IC50 under setting [1] came to 0.07 µM.

Take `Cc1cc2c(cnn2C)cc1-c1nccc2cc(S(=O)(=O)Nc3ccncn3)ccc12` [Example 308]: the “Nav1.7 Single Point Data IWQ (at […]) (%)” value is reported as 45%. Further, under setting [2], the IC50 was more than 10 µM. In the case of `O=S(=O)(Nc1ncns1)c1ccc2c(N3CCCC3c3ccccc3)cccc2c1` (centres unmarked) [Example 83], the IC50 under setting [1] is 0.01 µM. Same read-out and setting: for `COc1cc(OC)c(-c2nccc3cc(S(=O)(=O)Nc4ncns4)ccc23)c(OC)c1` [Example 60, N-(1,2,4-THIADIAZOL-5-YL)-1-(2,4,6-TRIMETHOXYPHENYL)ISOQUINOLINE-6-SULFONAMIDE] the value was 1.56 µM. Take `COc1cc(-c2cnn(C)c2)ccc1-c1nccc2cc(S(=O)(=O)Nc3ccncn3)ccc12` [Example 454, 1-(2-METHOXY-4-(1-METHYL-1H-PYRAZOL-4-YL)PHENYL)-N-(PYRIMIDIN-4-YL)ISOQUINOLINE-6-SULFONAMIDE]: the “Nav1.7 Single Point Data IWQ (at […]) (%)” value was less than 20%. For the compound `CN1CCN(Cc2cccc(-c3nccc4cc(S(=O)(=O)Nc5ccncn5)ccc34)c2)CC1` [Example 431, 1-(3-((4-METHYLPIPERAZIN-1-YL)METHYL)PHENYL)-N-(PYRIMIDIN-4-YL)ISOQUINOLINE-6-SULFONAMIDE], the “Nav1.7 Single Point Data IWQ (at […]) (%)” value stood at 20.2%.

Values taken from patent US9012443B2 (Amgen Inc., priority 2011, dated 2015).
